In patent publication US11634466B2, “Musclin peptides and methods of use thereof” (UNIVERSITY OF IOWA RESEARCH FOUNDATION, priority 2016, dated 2023):

Experiments:
Assay type in all cases: cell-based
OPA1 mRNA = OPA1 mRNA normalized to HPRT by PCR in myotube culture; conditions: n=3
Procedure: RNA isolation and quantitative reverse transcriptase polymerase chain reaction (qRT-PCR): Total RNA from mouse tissues and primary myocytes was isolated using RNeasy RNA Isolation Kit (Qiagen). A 1 μg primary myocyte or tissue RNA sample was used to synthesize cDNA in 50 μl reactions using Oligo(dT) as primer and SuperScript III Reverse Transcriptase (Invitrogen). Quantitative real-time PCR was performed on Mastercycler epgradient S (Eppendorf) using SYBR green based PCR reactions. For quantitative RT-PCR, 1 μl of reverse transcription reaction was mixed with 10 pmoles each specific primer and 12.5 μl SYBR PCR Master Mix (BioRad). The reaction was incubated for 40 cycles consisting of denaturation at 95° C. for 10 s and annealing/extension at 59.9° C.—for musclin, HPRT, Nrf2, 56° C.—for PGC1α, Tfam, Nrf1, for 1 min. The quality of the PCR product was routinely checked by a thermal denaturation curve following the qPCR reactions. The threshold cycle (CT) was determined by Realplex2 software (Eppendorf), and quantification of relative mRNA levels was performed by relative mRNA levels was performed by ΔΔCT method. […]

[1] = tested on: musclin mRNA in murine cultured primary myoblasts; assay: Musclin mRNA normalized to HPRT in murine cultured primary myoblasts
Procedure: (§1) RNA isolation and quantitative reverse transcriptase polymerase chain reaction (qRT-PCR): Total RNA from mouse tissues and primary myocytes was isolated using RNeasy RNA Isolation Kit (Qiagen). A 1 μg primary myocyte or tissue RNA sample was used to synthesize cDNA in 50 μl reactions using Oligo(dT) as primer and SuperScript III Reverse Transcriptase (Invitrogen). Quantitative real-time PCR was performed on Mastercycler epgradient S (Eppendorf) using SYBR green based PCR reactions. For quantitative RT-PCR, 1 μl of reverse transcription reaction was mixed with 10 pmoles each specific primer and 12.5 μl SYBR PCR Master Mix (BioRad). The reaction was incubated for 40 cycles consisting of denaturation at 95° C. for 10 s and annealing/extension at 59.9° C.—for musclin, HPRT, Nrf2, 56° C.—for PGC1α, Tfam, Nrf1, for 1 min. The quality of the PCR product was routinely checked by a thermal denaturation curve following the qPCR reactions. The threshold cycle (CT) was determined by Realplex2 software (Eppendorf), and quantification of relative mRNA levels was performed by ΔΔCT method. The primers used in this study are HPRT: HPRTF—GGACCTCTCGAAGTGTTGGATAC (SEQ ID NO: 16), HPRTR—GCTCATCTTAGGCTTTGTATTTGGCT (SEQ ID NO: 17); musclin: MuscF-TGTGGACTTAGCATCACAGG (SEQ ID NO: 18), MuscR-AGC TGA GAG TCT GTC AAG G (SEQ ID NO: 19); PGC1α: PGC1aF-TGATGTGAATGACTTGGATACAGACA (SEQ ID NO: 20), PGC1αR-GCTCATTGTTGTACTGGTTGGATATG (SEQ ID NO: 21); TfamF—GGAATGTGGAGCGTGCTAAAA (SEQ ID NO: 22), TfamR—TGCTGGAAAAACACTTCGGAATA (SEQ ID NO: 23); Nrf1F—CGC AGC ACC TTT GGA GAA (SEQ ID NO: 24, Nrf1R—CCCGACCTGTGGAATACTTG (SEQ ID NO: 25); Nrf2F—CAG CTC AAG GGC ACA GTG C (SEQ ID NO: 26), Nrf2R—GTG GCC CAA GTC TTG CTC C (SEQ ID NO: 27).
(§2) Mouse primary myoblasts were isolated from gastrocnemius muscle of 4-6 weeks old mice. Fresh muscle tissue was digested with 2 mg/ml collagenase II in DMEM-F12 for 1.5 h at 37° C.; then 30 min at 37° C. with 1 mg/ml collagenase II and 0.5 mg/ml dispase in DMEM-F12. Tissue was ground and passed through a 100 μm then 70 μm cell strainer and spun at 1000 rpm for 10 min. Myoblasts were resuspended in DMEM-F12 supplemented with 20% FBS, 40 ng/ml bFGF, non-essential amino acids, 1 mM β-mercaptoethanol. Cells were plated on matrigel coated dishes. Cells were maintained in DMEM-F12 supplemented with 20% FBS, 10 ng/ml bFGF, non-essential amino acids, 1 mM β-mercaptoethanol until 80% confluent. Then they were differentiated in DMEM-F12 supplemented with 2% FBS and insulin-transferrin-selenium for 10 days. Human skeletal myoblast primary culture (lot #SLSK002, Zenbio, Research Triangle Park, NC) was maintained according to the supplier's manual.

[2] = tested on: Akt and FOXO1 phosphorylation in cultured murine primary myoblasts; assay: Akt and FOXO1 phosphorylation by western blot in primary myoblasts with Ca2+ ionophore; conditions: 1 μM ionophore, 1 mM Ca2+, n=4
Procedure: Western blotting: Whole cell protein extracts were prepared by homogenizing skeletal muscle tissue in NaCl 150 mM, Tris-HCl 50 mM (pH 7.8), supplemented with 1.5% Triton X-100, protease and phosphatase inhibitors (Roche). Nuclear extracts were obtained using the Subcellular Protein Fractionation Kit for Tissues (Thermo Scientific).
Electrophoresis was performed on 3-8% gradient Nu-Page Tris-Acetate or 10% Nu-Page Bis-Tris gels and transferred to 0.2 μm Sequi-Blot PVDF membranes (Bio-Rad). The membranes were blotted with total AKT1 and phospho-AKT1([…], T308, Cell Signaling), FOXO1 (Cell Signaling), total OXPHOS (rodent, Abcam), musclin (custom rabbit IgG produced against partial mouse musclin sequence NH2-sfsgfgspldrlsagsvehrgkqrkavdhskkr-COOH (SEQ ID NO: 4), corresponding to amino acids 80-112, Gen Bank ID: AAS87598.1, Anaspec, Fremont, Calif.), and GAPDH (Santa Cruz Biotechnologies) antibodies. Densitometric analysis of western blots was performed using Adobe Photoshop (Adobe Systems, San Jose, Calif.).
as §2

[3] = tested on: musclin mRNA in human cultured primary myoblasts; assay: Musclin mRNA normalized to HPRT in human cultured primary myoblasts
Procedure: as §1, §2

[4] = tested on: cGMP production in murine primary myoblasts; assay: cGMP production in skeletal myoblast culture exposed to ANP and musclin; conditions: n=3
Procedure: Cyclic GMP levels were measured using cyclicGMP EIA kit (Cayman Chemical Company, Ann Arbor, Mich.). Mice were exercised for 5 days, 12 m/min, 45 min before tissue collection. At the day of the experiment mice were exercised 12 m/min, 20 min, sedated with isoflurane and gastrocnemius muscle tissue was collected. Cyclic nucleotides were extracted using 5% trichloracetic acid. Samples were acetylated and used for cGMP level measurements according to the manufacturer's protocol.
as §2

[5] = 0.5 μM ionophore, 1.0 mM Ca2+, n=3
[6] = 1 μM ionophore, 1.0 mM Ca2+, n=3

## Nc1nc2c(nc(Br)n2[C@@H]2O[C@@H]3COP(=O)(O)O[C@H]3[C@H]2O)c(=O)[nH]1 [8-Br-cGMP]
OPA1 mRNA; 8-Br-cGMP
  OPA1 mRNA normalized to HPRT: 5.61±0.36

## CNc1ccc2oc(C[C@H]3O[C@@]4(CC[C@H]3C)O[C@H]([C@H](C)C(=O)c3ccc[nH]3)[C@H](C)C[C@H]4C)nc2c1C(=O)O [A23187]
[1]; [5]
  musclin mRNA: 2.20±0.06 AU
[1]; [6]
  musclin mRNA: 3.60±0.81 AU
[1]; ionophore with removal of extracellular Ca2+ from the medium, n=3, p=NS vs. control
  musclin mRNA: 0.96±0.012 AU
[2]
  p-Akt/GAPDH: 0.91±0.05
  pAkt/total Akt: 0.66±0.03
  pFOXO1/GAPDH: 0.39±0.04
  pFOXO1/total FOXO1: 0.27±0.03
[3]; [5]
  musclin mRNA: 3.02±0.23 AU
[3]; 0.5 μM ionophore, Ca2+-free buffer, n=3, p=NS
  musclin mRNA: 0.74±0.18 AU
[3]; [6]
  musclin mRNA: 3.95±0.83 AU
[3]; 1 μM ionophore, Ca2+-free buffer, n=3, p=NS
  musclin mRNA: 0.79±0.18 AU

## CC[C@H](C)[C@@H]1NC(=O)[C@H](CCCNC(=N)N)NC(=O)[C@H](CC(=O)O)NC(=O)[C@H](CCSC)NC(=O)[C@H](CCCNC(=N)N)NC(=O)CNC(=O)CNC(=O)[C@H](Cc2ccccc2)NC(=O)[C@@H](NC(=O)[C@H](CO)NC(=O)[C@H](CO)NC(=O)[C@H](CCCNC(=N)N)NC(=O)[C@H](CCCNC(=N)N)NC(=O)[C@H](CC(C)C)NC(=O)[C@@H](N)CO)CSSC[C@@H](C(=O)N[C@@H](CC(N)=O)C(=O)N[C@@H](CO)C(=O)N[C@@H](Cc2ccccc2)C(=O)N[C@@H](CCCNC(=N)N)C(=O)N[C@@H](Cc2ccc(O)cc2)C(=O)O)NC(=O)CNC(=O)[C@H](CC(C)C)NC(=O)CNC(=O)[C@H](CO)NC(=O)[C@H](CCC(N)=O)NC(=O)[C@H](C)NC(=O)CNC1=O [ANP, atrial natriuretic peptide, reference compound]
[4]; 1 μM ANP
  cGMP production: 3.491±0.057 fmol/μg protein
[4]; 5 μM ANP
  cGMP production: 6.046±0.074 fmol/μg protein
OPA1 mRNA; ANP 5 μM
  OPA1 mRNA normalized to HPRT: 4.21±0.24

## O=c1[nH]c2ccccc2n1C1CCN(Cc2ccc(-c3nc4cc5[nH]cnc5cc4nc3-c3ccccc3)cc2)CC1 [Akt inhibitor-viii]
[1]; myoblasts pre-treated with Akt inhibitor-viii before Ca2+ ionophore, n=3, p=NS vs. control
  musclin mRNA: 1.09±0.03 AU
